The results in this text go back to patent US12077503B2, “Substituted cyclic amides and their use as herbicides” (FMC CORPORATION, priority 2015, dated 2024).

SMILES strings stand for the structures. Where two headings read alike, the source gives them in different places.

Holding throughout (format): in vivo
The test system of one experiment is rice (Oryra sativa). Description: Test B flooded paddy test. The note with it: Oryza sativa, 250 g ai/ha, Flood, read-out: Rice plant response rating. The gist of the method:
(§1)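 Evaluation by eye, against controls, occurred 13–15 d post-treatment in a greenhouse, using a 0 (no effect) to 100 (complete control) scale. Application was into the paddy water, 3 cm deep over the soil, on 2-leaf plants.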

Experiment [1] concerns barnyardgrass (Echinochloa crus-galli). Description: Test B flooded paddy test. The settings on record: Echinochloa crus-galli, 250 g ai/ha, Flood, read-out: Barnyardgrass plant response rating. The gist of the method:
as §1

The subject of experiment [2] is ducksalad (Heteranthera limosa). Description: Test B flooded paddy test. The note with it: Heteranthera limosa, 250 g ai/ha, Flood, read-out: Ducksalad plant response rating. The gist of the method:
as §1

For experiment [3], the system named is sedge, umbrella (small-flower umbrella sedge, Cyperus difformis). The experiment can be described thus: Test B flooded paddy test. The settings on record: Cyperus difformis, 250 g ai/ha, Flood, read-out: Sedge, Umbrella plant response rating. In outline:
as §1

The next experiment concerns Kochia (Kochia scoparia). The experiment can be described thus: Test A postemergence. The note with it: Bassia scoparia, post-emergence, 240 h; for pest or weed control at 125 g/ha: 125 g ai/ha; for pest or weed control at 500 g/ha: 500 g ai/ha. The gist of the method:
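Seeds sprayed preemergence with a directed soil spray, or plants at 2 to 10 cm height and one- to two-leaf stage sprayed postemergence, with test chemicals in a non-phytotoxic solvent mixture containing surfactant, in loam soil–sand blend. Injury rated visually against untreated controls after about 10 d in greenhouse, 0 (no effect) to 100 (complete control).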

Where [4] appears, read: 0 to 100 scale where 0 is no effect and 100 is complete control.
The mark [5] stands for this setting: postemergence, visual injury on 0 to 100 scale (0 no effect, 100 complete control), approx. 10 d, read-out: Kochia plant response rating.
The mark [6] stands for this setting: scale of 0 to 100 where 0 is no effect and 100 is complete control.
Where [7] appears, read: postemergence, visual injury rating after approximately 10 d, read-out: Kochia plant response rating (0 to 100 scale, 0 no effect, 100 complete control).
[8] abbreviates: postemergence, 0 to 100 scale, 0 is no effect, 100 is complete control, read-out: Kochia plant response rating.
Setting [9] is: postemergence, visual injury, 0 to 100 scale (0 no effect, 100 complete control), approx. 10 d, read-out: Plant response rating, Kochia.
Setting [10] is: postemergence, visual injury vs untreated controls after approx. 10 d, 0 = no effect, 100 = complete control, read-out: Kochia plant response rating (0 to 100 scale).
The mark [11] stands for this setting: Postemergence, visual injury after approximately 10 d, 0 to 100 scale where 0 is no effect and 100 is complete control, read-out: Plant response rating, Kochia.

With `Cc1cc([C@H]2CNC(=O)[C@@H]2C(=O)Nc2ccccc2S(C)(=O)=O)ccc1C(F)(F)F` [Compound 1041], the pest or weed control at 250 g/ha in the experiment with rice (Oryra sativa) (setting [4]) was 0%; in experiment [1] (setting [4]), 0%; in experiment [2] (setting [4]) it was 100%; in experiment [3] (setting [4]), 0%. Moreover, the pest or weed control at 125 g/ha in the experiment on Kochia (Kochia scoparia) (setting [5]) came to 0%.
With `CN1C[C@H](c2cc(F)cc(F)c2)[C@@H](C(=O)Nc2ccccc2[S@+](C)[O-])C1=O` [Compound 871], the pest or weed control at 250 g/ha (with rice (Oryra sativa) (setting [6]); in experiment [1] (setting [6]); in experiment [2] (setting [6]); in experiment [3] (setting [6])) was 0% in each case. For the same compound, the pest or weed control at 125 g/ha with Kochia (Kochia scoparia) (setting [7]) is 0%.
Turning to `CC(C)Oc1ccc([C@H]2CNC(=O)[C@@H]2C(=O)Nc2ccccc2F)cc1` [Compound 1135], the pest or weed control at 250 g/ha turned out to be 0% with rice (Oryra sativa) (setting [4]), 0% in experiment [1] (setting [4]), 40% in experiment [2] (setting [4]) and 0% in experiment [3] (setting [4]). For the same compound, the pest or weed control at 125 g/ha with Kochia (Kochia scoparia) (setting [5]) came to 0%. For the same compound, the pest or weed control at 500 g/ha in the experiment on Kochia (Kochia scoparia) (setting [8]) stood at 0%.
Consider `CN1C[C@H](c2cc(F)cc(F)c2)[C@@H](C(=O)Nc2ncccc2Cl)C1=O` [Compound 1097], for which the pest or weed control at 250 g/ha (in the experiment on rice (Oryra sativa) (setting [4]); in experiment [1] (setting [4]); in experiment [2] (setting [4]); in experiment [3] (setting [4])) was 0% each time. Moreover, the pest or weed control at 125 g/ha with Kochia (Kochia scoparia) (setting [5]) is 0%. Besides, the pest or weed control at 500 g/ha in the experiment on Kochia (Kochia scoparia) (setting [8]) was 0%.
As for `CS(=O)(=O)c1ccccc1NC(=O)[C@H]1C(=O)NC[C@@H]1c1cc(F)c(C(F)(F)F)c(F)c1` [Compound 839], the pest or weed control at 250 g/ha in the experiment on rice (Oryra sativa) (setting [6]) amounted to 0%; in experiment [1] (setting [6]) it was 0%; in experiment [2] (setting [6]), 70%; in experiment [3] (setting [6]) it was 0%. Further, the pest or weed control at 125 g/ha in the experiment with Kochia (Kochia scoparia) (setting [7]) turned out to be 70%.
For the compound `Cc1cc(F)cc([C@H]2CN(C)C(=O)[C@@H]2C(=O)Nc2ccccc2F)c1` [Compound 850], the pest or weed control at 250 g/ha with rice (Oryra sativa) (setting [6]) came out at 0%; in experiment [1] (setting [6]), 70%; in experiment [2] (setting [6]) it was 90%; in experiment [3] (setting [6]), 0%. The pest or weed control at 125 g/ha in the experiment on Kochia (Kochia scoparia) (setting [7]) was 0%.
As to `COc1ccc([C@H]2CN(C)C(=O)[C@@H]2C(=O)Nc2ccccc2F)cc1OC` [Compound 852], the pest or weed control at 250 g/ha came out at 0% in the experiment on rice (Oryra sativa) (setting [6]), 40% in experiment [1] (setting [6]), 40% in experiment [2] (setting [6]) and 0% in experiment [3] (setting [6]). In addition, in the experiment on Kochia (Kochia scoparia) (setting [7]), the pest or weed control at 125 g/ha was 0%.
Turning to `Cc1cc([C@H]2CNC(=O)[C@@H]2C(=O)Nc2cccc(F)c2F)ccc1C(F)(F)F` [Compound 1040], the pest or weed control at 250 g/ha is 0% in the experiment with rice (Oryra sativa) (setting [4]), 60% in experiment [1] (setting [4]), 75% in experiment [2] (setting [4]) and 0% in experiment [3] (setting [4]). In addition, in the experiment on Kochia (Kochia scoparia) (setting [5]), the pest or weed control at 125 g/ha came out at 60%. Further, the pest or weed control at 500 g/ha in the experiment on Kochia (Kochia scoparia) (setting [9]) came to 70%.
Consider `CN1C[C@H](c2cccc(F)c2)[C@@H](C(=O)Nc2ccccc2C(F)(F)F)C1=O` [Compound 823], for which the pest or weed control at 250 g/ha with rice (Oryra sativa) (setting [6]) came out at 0%; in experiment [1] (setting [6]), 40%; in experiment [2] (setting [6]), 90%; in experiment [3] (setting [6]) it was 0%. For the same compound, the pest or weed control at 125 g/ha in the experiment on Kochia (Kochia scoparia) (setting [7]) came out at 20%.
With `CN1C[C@H](c2cccc(C3CC3)c2)[C@@H](C(=O)Nc2ccccc2S(C)(=O)=O)C1=O` [Compound 817], the pest or weed control at 250 g/ha in the experiment on rice (Oryra sativa) (setting [6]) was determined as 0%; in experiment [1] (setting [6]), 60%; in experiment [2] (setting [6]), 90%; in experiment [3] (setting [6]), 0%. For the same compound, in the experiment on Kochia (Kochia scoparia) (setting [7]), the pest or weed control at 125 g/ha was 0%.
As to `CCc1ccc([C@H]2CNC(=O)[C@@H]2C(=O)Nc2cccc(F)c2C)cc1` [Compound 1177], the pest or weed control at 250 g/ha in the experiment on rice (Oryra sativa) (setting [4]) was 20%; in experiment [1] (setting [4]) it was 70%; in experiment [2] (setting [4]) it was 95%; in experiment [3] (setting [4]), 0%. The pest or weed control at 125 g/ha in the experiment with Kochia (Kochia scoparia) (setting [10]) came out at 0%. The pest or weed control at 500 g/ha in the experiment on Kochia (Kochia scoparia) (setting [8]) was 0%.
With `O=C1NC[C@H](c2cscn2)[C@H]1C(=O)Nc1cccc(F)c1F` [Compound 1111], the pest or weed control at 250 g/ha in the experiment with rice (Oryra sativa) (setting [4]) is 0%; in experiment [1] (setting [4]), 20%; in experiment [2] (setting [4]) it was 70%; in experiment [3] (setting [4]) it was 0%. The pest or weed control at 125 g/ha with Kochia (Kochia scoparia) (setting [5]) was 0%. For the same compound, in the experiment with Kochia (Kochia scoparia) (setting [8]), the pest or weed control at 500 g/ha stood at 0%.
With `CCOc1ccc([C@H]2CNC(=O)[C@@H]2C(=O)Nc2ccc(F)cc2F)cc1` [Compound 908], the pest or weed control at 250 g/ha (with rice (Oryra sativa) (setting [6]); in experiment [1] (setting [6]); in experiment [2] (setting [6]); in experiment [3] (setting [6])) was 0% each time. In addition, the pest or weed control at 125 g/ha in the experiment with Kochia (Kochia scoparia) (setting [7]) is 0%.
`Cc1cc([C@H]2CN(C)C(=O)[C@@H]2C(=O)Nc2ccccc2F)ccc1Cl` [Compound 928]: the pest or weed control at 250 g/ha with rice (Oryra sativa) (setting [6]) worked out at 0%; in experiment [1] (setting [6]) it was 55%; in experiment [2] (setting [6]) it was 80%; in experiment [3] (setting [6]), 0%. For the same compound, the pest or weed control at 125 g/ha in the experiment on Kochia (Kochia scoparia) (setting [11]) was 40%.
For `CN1C[C@H](c2cccc(C3CC3)c2)[C@@H](C(=O)Nc2ccc(F)cc2F)C1=O` [Compound 818], the pest or weed control at 250 g/ha with rice (Oryra sativa) (setting [6]) was 0%; in experiment [1] (setting [6]) it was 55%; in experiment [2] (setting [6]), 80%; in experiment [3] (setting [6]) it was 0%. Besides, the pest or weed control at 125 g/ha in the experiment with Kochia (Kochia scoparia) (setting [7]) stood at 40%.
Take `Cc1ccc([C@H]2CNC(=O)[C@@H]2C(=O)Nc2ccccc2F)cc1C` [Compound 1033]: the pest or weed control at 250 g/ha in the experiment with rice (Oryra sativa) (setting [4]) turned out to be 0%; in experiment [1] (setting [4]) it was 50%; in experiment [2] (setting [4]), 100%; in experiment [3] (setting [4]), 0%. The pest or weed control at 125 g/ha in the experiment on Kochia (Kochia scoparia) (setting [5]) was 0%. Besides, the pest or weed control at 500 g/ha with Kochia (Kochia scoparia) (setting [9]) is 0%.
`COc1cc([C@H]2CN(C)C(=O)[C@@H]2C(=O)Nc2cccc(F)c2F)cc(C(F)(F)F)c1` [Compound 856]: the pest or weed control at 250 g/ha turned out to be 0% with rice (Oryra sativa) (setting [6]), 50% in experiment [1] (setting [6]), 75% in experiment [2] (setting [6]) and 0% in experiment [3] (setting [6]). The pest or weed control at 125 g/ha in the experiment with Kochia (Kochia scoparia) (setting [7]) amounted to 30%.
On to `Cc1cc([C@H]2CN(C)C(=O)[C@@H]2C(=O)Nc2ccc(F)cc2F)ccc1Cl` [Compound 930], for which the pest or weed control at 250 g/ha with rice (Oryra sativa) (setting [6]) was found to be 0%; in experiment [1] (setting [6]), 50%; in experiment [2] (setting [6]), 80%; in experiment [3] (setting [6]), 0%. The pest or weed control at 125 g/ha in the experiment on Kochia (Kochia scoparia) (setting [11]) worked out at 20%.
For `Cc1ccc([C@H]2CN(C)C(=O)[C@@H]2C(=O)Nc2cccc(F)c2C)cc1Cl` [Compound 1014], the pest or weed control at 250 g/ha in the experiment on rice (Oryra sativa) (setting [4]) worked out at 70%; in experiment [1] (setting [4]), 100%; in experiment [2] (setting [4]), 85%; in experiment [3] (setting [4]), 0%. In addition, the pest or weed control at 125 g/ha in the experiment on Kochia (Kochia scoparia) (setting [11]) turned out to be 30%. Also, the pest or weed control at 500 g/ha with Kochia (Kochia scoparia) (setting [9]) is 50%.
In the case of `CSc1ccccc1NC(=O)[C@H]1C(=O)N(C)C[C@@H]1c1cccc(COC(F)F)c1` [Compound 876], the pest or weed control at 250 g/ha was 0% in the experiment on rice (Oryra sativa) (setting [6]), 0% in experiment [1] (setting [6]), 85% in experiment [2] (setting [6]) and 0% in experiment [3] (setting [6]). Also, the pest or weed control at 125 g/ha in the experiment on Kochia (Kochia scoparia) (setting [7]) was determined as 50%.
Turning to `CCc1ccc([C@H]2CNC(=O)[C@@H]2C(=O)Nc2ccccc2SC)cc1` [Compound 1178], the pest or weed control at 250 g/ha with rice (Oryra sativa) (setting [4]) stood at 20%; in experiment [1] (setting [4]) it was 20%; in experiment [2] (setting [4]), 90%; in experiment [3] (setting [4]) it was 0%. Besides, the pest or weed control at 125 g/ha with Kochia (Kochia scoparia) (setting [10]) came out at 20%. The pest or weed control at 500 g/ha in the experiment with Kochia (Kochia scoparia) (setting [8]) came to 40%.
